Data set [1] can be described thus: Aqueous solubility (pH 7, phosphate buffer). The format is physicochemical.
For data set [2], the system named is Staphylococcus aureus UC9213 or Streptococcus species. As to the kind of experiment: Antimicrobial activity in vivo, Murine Assay (mice infected intraperitoneally with bacteria; ED50 from survival over six days). The conditions noted are these: 144 h, female mice, treatment one hour and five hours after infection. Here is the method:
Antimicrobial activity was tested in vivo using the Murine Assay procedure. Groups of female mice (six mice of 18-20 grams each) were injected intraperitoneally with bacteria which were thawed just prior to use and suspended in brain heart infusion with 4% brewers yeast UC9213 (Staphylococcus aureus) or brain heart infusion (Streptococcus species). Antibiotic treatment at six dose levels per drug was administered one hour and five hours after infection by either oral intubation or subcutaneous ("subcut.") routes. Survival was observed daily for six days. ED50 values based on mortality ratios were calculated using probit analysis. The subject compounds were compared against a well-known antimicobial (Vancomycin) as a control.

What is called solubility is the dissolved amount per volume that the medium holds. A higher solubility goes with a readily soluble substance. One may read the ED50 as the dose at which the effect has come halfway, by size or by number of responders.

≈ marks a conversion by molar mass, not a printed value.

`CC(=O)NC[C@H]1CN(c2ccc(N3CCN(C(=O)COC(=O)CN4CCN(C)CC4)CC3)c(F)c2)C(=O)O1` [Example 13, (4-Methyl-1-piperazinyl)acetic acid, 2-[4-[4-[5-[(acetylamino)methyl]-2-oxo-3-oxazolidinyl]-2-fluorophenyl]-1-piperazinyl]-2-oxoethyl ester, (S)-] registered a solubility in data set [1] of 79100 µg/mL (≈ 148 mM). In addition, the ED50 in data set [2] (oral) is greater than 20 mg/kg; in data set [2] (sc, subcut.) it was greater than 20 mg/kg.

As to `CC(=O)NC[C@H]1CN(c2cc(F)c(N3CCN(C(=O)COC(C)=O)CC3)c(F)c2)C(=O)O1` [Example 14, Acetic acid, 2-(4-(4-(5-((acetylamino)methyl)-2-oxo-3-oxazolidinyl)-2,6-difluorophenyl)-1-piperazinyl)-2-oxoethyl ester, (S)], the solubility in data set [1] was determined as 1600 µg/mL (≈ 3.52 mM). In data set [2] (oral), the 50% effect level (ED50) was put at a dose of 3 mg/kg.

`CC(=O)NC[C@H]1CN(c2ccc(N3CCN(C(=O)COC(=O)CCC(=O)O)CC3)c(F)c2)C(=O)O1` [Example 17] registered a solubility in data set [1] of 28000 µg/mL (≈ 56.6 mM). The median effective dose (ED50) in data set [2] (oral) is 5 mg/kg; in data set [2] (sc, subcut.), 2 mg/kg.

Molecule `CC(=O)CCC(=O)OCC(=O)N1CCN(c2c(F)cc(N3C[C@H](CNC(C)=O)OC3=O)cc2F)CC1` [Example 18, 4-Oxo-valeric acid, 2-(4-(4-(5-((acetylamino)methyl)-2-oxo-3-oxazolidinyl)-2,6-difluorophenyl)-1-piperazinyl)-2-oxoethyl ester, (S)] registered a solubility in data set [1] of 1200 µg/mL (≈ 2.35 mM). The ED50 was 14 mg/kg in data set [2] (oral) and greater than 20 mg/kg in data set [2] (sc, subcut.).

`CC(=O)NC[C@H]1CN(c2ccc(N3CCN(C(=O)COP(=O)(O)O)CC3)c(F)c2)C(=O)O1` [Example 20, Phosphoric acid, 2-(4-(4-(5-((acetylamino)methyl)-2-oxo-3-oxazolidinyl)-2-fluorophenyl)-1-piperazinyl)-2-oxoethyl ester, (S)]: in data set [1], the solubility came to 25700 µg/mL (≈ 54.2 mM). For the same molecule, the 50% effective dose (ED50) turned out to be 6 mg/kg in data set [2] (oral) and 4 mg/kg in data set [2] (sc, subcut.).

`CC(=O)NC[C@H]1CN(c2ccc(N3CCN(C(=O)COC(=O)c4ccc(N)cc4)CC3)c(F)c2)C(=O)O1` [Example 21, 4-aminobenzoic acid, 2-[4-[4-[5-[(acetylamino)methyl]-2-oxo-3-oxazolidinyl]-2-fluorophenyl]-1-piperazinyl]-2-oxoethyl ester, (S)-] showed a solubility in data set [1] of 30 µg/mL (≈ 0.0584 mM). Also, the median effective dose (ED50) was found to be 8 mg/kg in data set [2] (oral) and 13 mg/kg in data set [2] (sc, subcut.).

The molecule `CC(=O)NC[C@H]1CN(c2ccc(N3CCN(C(=O)COC(=O)C(C)(CO)CO)CC3)c(F)c2)C(=O)O1` [Example 22, 2,2-bis(hydroxymethyl)propionic acid, 2-[4-[4-[5-[(acetylamino)methyl]-2-oxo-3-oxazolidinyl]-2-fluorophenyl]-1-piperazinyl]-2-oxoethyl ester, (S)-] yielded a solubility in data set [1] of 13000 µg/mL (≈ 25.5 mM). The ED50 in data set [2] (oral) was greater than 18 mg/kg; in data set [2] (sc, subcut.), 4 mg/kg.

Turning to `CC(=O)NC[C@H]1CN(c2ccc(N3CCN(C(=O)COC(=O)CO)CC3)c(F)c2)C(=O)O1` [Example 23, Hydroxyacetic acid, 2-[4-[4-[5[(acetylamino)methyl]-2-oxo-3-oxazolidinyl]-2-fluorophenyl]-1-piperazinyl]-2-oxoethyl ester, (S)], the concentration in solution in data set [1] (solubility) came to 4200 µg/mL (≈ 9.28 mM). In addition, the median effective dose (ED50) was 2 mg/kg in data set [2] (oral) and 1 mg/kg in data set [2] (sc, subcut.).

On to `COCC(=O)OCC(=O)N1CCN(c2ccc(N3C[C@H](CNC(C)=O)OC3=O)cc2F)CC1` [Example 25, Methoxyacetic acid, 2-(4-(4-(5-((acetylamino)methyl)-2-oxo3-oxazolidinyl)-2-fluorophenyl)-1-piperazinyl)-2-oxoethyl ester, (S)], for which, in data set [1], the concentration in solution (solubility) was 6400 µg/mL (≈ 13.7 mM). Further, the 50% effective dose (ED50) in data set [2] (oral) worked out at 8 mg/kg; in data set [2] (sc, subcut.) it was 15 mg/kg.

`CC(=O)NC[C@H]1CN(c2cc(F)c(N3CCN(C(=O)COC(=O)CCN4CCOCC4)CC3)c(F)c2)C(=O)O1` [Example 26, 3-(N-morpholinyl)propionic acid, 2-(4-(4-(5-((acetylamino)methyl)-2-oxo-3-oxaxzolidinyl)-2,6-difluorophenyl)-1-piperazinyl)-2-oxoethyl ester, (S)] yielded a solubility in data set [1] of 8200 µg/mL (≈ 14.8 mM). For the same molecule, the 50% effective dose (ED50) in data set [2] (oral) turned out to be 6 mg/kg; in data set [2] (sc, subcut.), 3 mg/kg.

In turn, `CC(=O)NC[C@H]1CN(c2ccc(N3CCN(C(=O)COC(=O)CN4CCOCC4)CC3)c(F)c2)C(=O)O1` [Example 27, (4-morpholinyl)acetic acid, 2-(4-(4-(5-((acetylamino)methyl)-2-oxo-3-oxazolidinyl)-2-fluorophenyl)-1-piperazinyl)-2-oxoethyl ester, (S)] yielded a solubility in data set [1] of 55300 µg/mL (≈ 106 mM). In data set [2] (oral), this molecule yielded an ED50 of 6 mg/kg.

In turn, `CC(=O)NC[C@H]1CN(c2ccc(N3CCN(C(=O)COC(=O)c4ccc(NC(=O)CN)cc4)CC3)c(F)c2)C(=O)O1` [Example 29, 4-N-(glycinyl)aminobenzoic acid, 2-[4-[4-[5-[(acetylamino)methyl]-2-oxo-3-oxazolidinyl]-2-fluorophenyl]-1-piperazinyl]-2-oxoethyl ester, (S)-] yielded a solubility in data set [1] of 9800 µg/mL (≈ 17.2 mM). The molecule further registered a median effective dose (ED50) in data set [2] (oral) of 9 mg/kg.

These data come from patent US5652238A, “Esters of substituted-hydroxyacetyl piperazine phenyl oxazolidinones” (Pharmacia & Upjohn Company, priority 1996, dated 1997).
